Inhibition data for eight molecules are collected here from ChEMBL document CHEMBL3108763, “[1,2,4]triazolo[4,3-a]phthalazines: inhibitors of diverse bromodomains” (J Med Chem, 2014).

SMILES strings stand for the structures. Where only a bound is given, the exact number is not on record here.

For test [1], the target named is T1, Transcription intermediary factor 1-alpha (Homo sapiens) (UniProt O15164).
T1 sequence (whole entry): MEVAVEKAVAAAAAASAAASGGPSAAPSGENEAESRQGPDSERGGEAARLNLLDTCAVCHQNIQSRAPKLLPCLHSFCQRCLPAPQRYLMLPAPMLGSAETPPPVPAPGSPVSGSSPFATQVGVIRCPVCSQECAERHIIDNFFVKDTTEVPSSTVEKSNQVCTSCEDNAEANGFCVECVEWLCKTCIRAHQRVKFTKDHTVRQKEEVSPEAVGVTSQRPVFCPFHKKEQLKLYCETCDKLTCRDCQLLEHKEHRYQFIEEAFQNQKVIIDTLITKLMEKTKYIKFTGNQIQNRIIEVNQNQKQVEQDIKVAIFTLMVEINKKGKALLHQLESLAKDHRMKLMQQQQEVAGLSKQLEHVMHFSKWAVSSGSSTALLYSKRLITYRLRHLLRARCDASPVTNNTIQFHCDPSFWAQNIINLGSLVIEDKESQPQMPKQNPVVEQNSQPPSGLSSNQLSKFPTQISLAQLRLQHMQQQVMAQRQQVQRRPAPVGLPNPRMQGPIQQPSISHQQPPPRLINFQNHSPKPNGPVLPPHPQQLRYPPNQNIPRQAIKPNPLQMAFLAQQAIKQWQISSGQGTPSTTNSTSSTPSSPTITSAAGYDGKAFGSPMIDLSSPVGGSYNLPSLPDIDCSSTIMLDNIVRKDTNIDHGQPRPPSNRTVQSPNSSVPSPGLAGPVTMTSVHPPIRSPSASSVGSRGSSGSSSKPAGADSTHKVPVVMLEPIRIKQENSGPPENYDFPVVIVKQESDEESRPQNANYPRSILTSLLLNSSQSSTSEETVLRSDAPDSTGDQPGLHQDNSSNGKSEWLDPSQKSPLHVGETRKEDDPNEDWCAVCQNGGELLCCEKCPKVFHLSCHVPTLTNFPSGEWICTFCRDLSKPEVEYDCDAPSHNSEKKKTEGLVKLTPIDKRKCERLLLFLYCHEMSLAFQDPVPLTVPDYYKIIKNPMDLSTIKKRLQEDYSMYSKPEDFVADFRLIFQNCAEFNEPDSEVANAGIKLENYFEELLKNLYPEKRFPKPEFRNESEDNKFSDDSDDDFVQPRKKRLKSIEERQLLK
As to conditions: 50 uM.

The target of test [2] is T1, Transcription intermediary factor 1-alpha (Homo sapiens). Conditions: 100 uM.
Test [3] deals with Bromodomain adjacent to zinc finger domain protein 2B (Homo sapiens) (UniProt Q9UIF8). As to conditions: 100 uM.
The target of test [4] is Protein polybromo-1 (Homo sapiens) (UniProt Q86U86). Conditions: 100 uM.
Protein polybromo-1 (Homo sapiens), sequence (Q86U86 whole entry): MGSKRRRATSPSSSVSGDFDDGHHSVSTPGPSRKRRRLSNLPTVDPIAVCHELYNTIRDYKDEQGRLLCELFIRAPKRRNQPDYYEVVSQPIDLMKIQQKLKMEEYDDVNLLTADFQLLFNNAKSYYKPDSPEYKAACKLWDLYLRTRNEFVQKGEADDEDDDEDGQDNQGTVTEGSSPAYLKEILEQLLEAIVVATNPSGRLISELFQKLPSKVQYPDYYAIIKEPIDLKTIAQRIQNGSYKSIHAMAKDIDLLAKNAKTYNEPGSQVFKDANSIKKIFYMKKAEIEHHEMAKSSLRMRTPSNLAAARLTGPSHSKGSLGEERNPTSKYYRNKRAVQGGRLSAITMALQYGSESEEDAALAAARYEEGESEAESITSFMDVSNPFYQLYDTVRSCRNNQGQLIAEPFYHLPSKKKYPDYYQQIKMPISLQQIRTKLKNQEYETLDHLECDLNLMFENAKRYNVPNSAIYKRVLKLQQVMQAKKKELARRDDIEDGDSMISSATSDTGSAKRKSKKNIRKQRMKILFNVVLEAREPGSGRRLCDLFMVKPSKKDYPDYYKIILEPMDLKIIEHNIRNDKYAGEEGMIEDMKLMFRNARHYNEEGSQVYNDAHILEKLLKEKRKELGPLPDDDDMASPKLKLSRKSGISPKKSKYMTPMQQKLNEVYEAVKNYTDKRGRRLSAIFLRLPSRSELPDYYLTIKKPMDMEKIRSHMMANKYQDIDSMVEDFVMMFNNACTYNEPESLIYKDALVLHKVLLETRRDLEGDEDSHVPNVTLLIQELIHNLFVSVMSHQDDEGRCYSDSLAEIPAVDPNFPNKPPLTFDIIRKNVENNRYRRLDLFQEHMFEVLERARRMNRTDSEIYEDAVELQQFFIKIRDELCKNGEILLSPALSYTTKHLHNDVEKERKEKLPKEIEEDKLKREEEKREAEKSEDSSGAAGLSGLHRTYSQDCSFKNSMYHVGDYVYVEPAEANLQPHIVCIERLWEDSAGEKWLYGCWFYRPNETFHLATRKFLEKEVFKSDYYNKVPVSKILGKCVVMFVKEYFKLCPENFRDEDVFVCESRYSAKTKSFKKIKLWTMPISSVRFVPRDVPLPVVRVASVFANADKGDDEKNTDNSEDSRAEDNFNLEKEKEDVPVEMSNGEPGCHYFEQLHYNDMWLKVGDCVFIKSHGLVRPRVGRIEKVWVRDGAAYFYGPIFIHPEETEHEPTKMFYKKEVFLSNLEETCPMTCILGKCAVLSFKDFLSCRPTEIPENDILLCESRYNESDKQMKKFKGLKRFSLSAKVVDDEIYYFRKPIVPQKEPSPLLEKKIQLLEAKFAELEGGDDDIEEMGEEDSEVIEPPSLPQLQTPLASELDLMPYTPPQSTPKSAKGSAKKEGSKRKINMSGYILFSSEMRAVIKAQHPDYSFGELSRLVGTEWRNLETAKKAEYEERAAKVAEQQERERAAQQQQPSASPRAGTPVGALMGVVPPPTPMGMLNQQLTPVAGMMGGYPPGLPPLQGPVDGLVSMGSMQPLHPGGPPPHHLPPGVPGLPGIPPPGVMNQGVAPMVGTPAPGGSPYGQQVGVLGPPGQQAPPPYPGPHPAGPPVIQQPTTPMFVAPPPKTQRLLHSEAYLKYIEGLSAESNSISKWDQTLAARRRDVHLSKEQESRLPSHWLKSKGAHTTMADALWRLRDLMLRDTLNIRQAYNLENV

Bromodomain adjacent to zinc finger domain protein 2B (Homo sapiens), sequence (Q9UIF8 whole entry, the tested form may be a part): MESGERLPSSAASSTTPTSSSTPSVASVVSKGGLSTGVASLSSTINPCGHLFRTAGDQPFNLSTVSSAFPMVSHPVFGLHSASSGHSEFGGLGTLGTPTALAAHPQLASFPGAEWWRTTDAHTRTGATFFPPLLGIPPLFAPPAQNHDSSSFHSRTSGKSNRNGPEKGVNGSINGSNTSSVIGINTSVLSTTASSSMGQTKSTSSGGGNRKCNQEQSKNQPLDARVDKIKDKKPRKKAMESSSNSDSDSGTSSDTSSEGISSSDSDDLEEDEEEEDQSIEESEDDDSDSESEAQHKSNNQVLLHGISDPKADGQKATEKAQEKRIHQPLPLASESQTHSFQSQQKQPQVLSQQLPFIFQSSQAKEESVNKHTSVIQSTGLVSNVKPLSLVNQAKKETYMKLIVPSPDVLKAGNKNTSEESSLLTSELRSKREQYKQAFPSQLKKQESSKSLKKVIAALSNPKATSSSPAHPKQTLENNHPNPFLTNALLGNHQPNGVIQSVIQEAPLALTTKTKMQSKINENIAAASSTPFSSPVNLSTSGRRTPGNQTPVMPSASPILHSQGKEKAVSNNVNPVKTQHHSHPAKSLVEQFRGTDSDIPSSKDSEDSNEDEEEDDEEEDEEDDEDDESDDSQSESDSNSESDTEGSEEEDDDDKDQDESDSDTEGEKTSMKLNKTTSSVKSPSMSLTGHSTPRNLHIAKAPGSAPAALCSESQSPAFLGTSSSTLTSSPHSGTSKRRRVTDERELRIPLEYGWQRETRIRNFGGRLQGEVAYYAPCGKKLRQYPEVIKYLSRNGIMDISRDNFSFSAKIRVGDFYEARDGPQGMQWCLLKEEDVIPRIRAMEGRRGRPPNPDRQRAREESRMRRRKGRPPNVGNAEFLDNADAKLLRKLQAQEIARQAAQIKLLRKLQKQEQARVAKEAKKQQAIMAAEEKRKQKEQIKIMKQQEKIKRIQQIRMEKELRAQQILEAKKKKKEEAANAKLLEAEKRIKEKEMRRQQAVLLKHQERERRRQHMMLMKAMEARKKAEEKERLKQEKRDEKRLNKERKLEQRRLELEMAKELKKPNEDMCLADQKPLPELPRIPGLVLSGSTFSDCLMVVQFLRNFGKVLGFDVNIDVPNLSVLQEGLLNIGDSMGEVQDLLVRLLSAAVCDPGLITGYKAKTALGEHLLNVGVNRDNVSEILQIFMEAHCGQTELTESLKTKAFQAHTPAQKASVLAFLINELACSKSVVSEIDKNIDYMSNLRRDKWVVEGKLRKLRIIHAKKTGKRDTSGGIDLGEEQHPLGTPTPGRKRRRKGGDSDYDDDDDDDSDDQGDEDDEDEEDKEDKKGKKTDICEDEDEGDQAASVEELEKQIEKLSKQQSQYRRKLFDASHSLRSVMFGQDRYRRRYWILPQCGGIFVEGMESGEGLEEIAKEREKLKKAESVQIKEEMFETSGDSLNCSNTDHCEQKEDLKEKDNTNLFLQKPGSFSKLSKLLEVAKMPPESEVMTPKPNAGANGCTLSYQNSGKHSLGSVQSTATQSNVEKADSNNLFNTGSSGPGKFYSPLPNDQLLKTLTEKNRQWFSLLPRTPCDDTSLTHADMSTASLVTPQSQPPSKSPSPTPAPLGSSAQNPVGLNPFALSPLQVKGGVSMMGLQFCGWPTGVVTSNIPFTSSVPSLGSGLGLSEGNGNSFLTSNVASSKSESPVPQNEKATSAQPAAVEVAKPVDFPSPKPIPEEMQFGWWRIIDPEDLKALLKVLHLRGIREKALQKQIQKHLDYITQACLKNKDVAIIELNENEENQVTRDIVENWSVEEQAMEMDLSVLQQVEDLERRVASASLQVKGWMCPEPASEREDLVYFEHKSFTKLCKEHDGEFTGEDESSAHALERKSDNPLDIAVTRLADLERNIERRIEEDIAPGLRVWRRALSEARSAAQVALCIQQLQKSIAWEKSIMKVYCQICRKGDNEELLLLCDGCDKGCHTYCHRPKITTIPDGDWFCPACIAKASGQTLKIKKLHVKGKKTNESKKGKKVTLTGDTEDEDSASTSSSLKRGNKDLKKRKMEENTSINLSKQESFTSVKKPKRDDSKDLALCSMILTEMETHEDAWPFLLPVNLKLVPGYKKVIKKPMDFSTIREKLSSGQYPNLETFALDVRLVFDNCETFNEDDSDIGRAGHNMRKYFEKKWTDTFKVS

Turning to `Cc1nnc2c3ccccc3c(-c3ccc(N4CCOCC4)c(NS(=O)(=O)c4ccccc4Cl)c3)nn12`, in test [1], the inhibition was less than 30%.

With `Cc1ccc(-c2nn3c(C)nnc3c3ccccc23)cc1NS(C)(=O)=O`, the inhibition in test [2], in test [3] and in test [4] was less than 25% in each case.

Take `Cc1nnc2c3ccccc3c(-c3ccc(N4CCOCC4)c(NS(C)(=O)=O)c3)nn12`: the inhibition in test [1] was less than 30%.

Molecule `COc1ccc(S(=O)(=O)Nc2cc(-c3nn4c(C)nnc4c4ccccc34)ccc2N2CCN(C)CC2)cc1` yielded an inhibition in test [1] of less than 30%.

Regarding `Cc1nnc2c3ccccc3c(-c3ccc(N4CCOCC4)c(NS(=O)(=O)c4ccc(Cl)cc4)c3)nn12`, the inhibition in test [1] was less than 30%.

As for `CNS(=O)(=O)c1cc(-c2nn3c(C)nnc3c3ccccc23)ccc1C`, the inhibition in test [2], in test [3] and in test [4] was less than 25% in each case.

As for `Cc1ccc(-c2nn3c(C)nnc3c3ccccc23)cc1S(=O)(=O)N(C)C`, the inhibition in test [2], in test [3] and in test [4] was less than 25% throughout.

Take `CCC(=O)Nc1cc(-c2nn3c(C)nnc3c3ccccc23)ccc1C`: the inhibition in test [2], in test [3] and in test [4] was less than 25% in each case.

The term inhibition denotes the relative decrease from the control value, in per cent. High values mean a strong effect, low ones a weak effect.
